Source: PMC3692398 (Biochemical pharmacology, 2013)
Where two headings read alike, the source gives them in different places.

How the values were obtained:
hDAT [1] = molecular target: T1, hDAT (Homo sapiens, UniProt Q01959); test: Inhibition of [125I]RTI-55 binding, HEK-hDAT membranes
hVMAT2 [2] = molecular target: T2, hVMAT2 (Homo sapiens, UniProt Q05940); test: Inhibition of [3H]DHTB binding, HEK-hVMAT2 membranes
human D4.4 receptor = molecular target: T3, human D4.4 receptor (Homo sapiens, UniProt P21917); type: binding; settings: test drugs up to 10 µM; words give concentration range, 'low' = low nanomolar
T3 sequence (P21917 1-419): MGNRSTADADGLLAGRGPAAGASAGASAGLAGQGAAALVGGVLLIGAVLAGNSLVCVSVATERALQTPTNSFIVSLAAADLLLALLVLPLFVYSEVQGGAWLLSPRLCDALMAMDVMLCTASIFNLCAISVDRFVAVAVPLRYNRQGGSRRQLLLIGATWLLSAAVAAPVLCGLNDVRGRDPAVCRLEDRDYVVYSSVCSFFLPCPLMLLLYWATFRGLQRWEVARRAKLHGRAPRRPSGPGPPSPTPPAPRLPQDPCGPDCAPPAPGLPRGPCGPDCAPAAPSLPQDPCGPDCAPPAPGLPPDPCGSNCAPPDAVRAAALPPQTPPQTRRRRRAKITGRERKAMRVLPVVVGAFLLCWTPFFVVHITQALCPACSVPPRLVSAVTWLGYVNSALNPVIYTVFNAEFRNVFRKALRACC

hVMAT2 [3] = molecular target: T2, hVMAT2; test: Superfusion release of preloaded [3H]NE from HEK-hVMAT2 cells; type: cell-based
h5-HT2A receptor [4] = molecular target: T4, h5-HT2A receptor (Homo sapiens, UniProt P28223); test: Inhibition of 5-HT-stimulated IP-1 formation; type: cell-based; settings: for h5-HT2A Inhibition of 5-HT-stimulated IP-1 formation % maximum inhibition ± sem: normalized to maximal inhibition by ketanserin (10 µM)
hSigma1 receptor [5] = molecular target: T5, hSigma1 receptor (Homo sapiens, UniProt Q99720); settings: read-out: hSigma1 Ki, published value; ref Lee et al., 2008; cited from earlier work
hVMAT2 [6] = molecular target: T2, hVMAT2; test: Inhibition of [3H]5-HT uptake, HEK-hVMAT2 membrane preparation; type: biochemical
h5-HT1A receptor [7] = molecular target: T6, h5-HT1A receptor (Homo sapiens, UniProt P08908); test: [3H]8-OH-DPAT binding, HEK-h5-HT1A
T6 sequence (P08908 1-422): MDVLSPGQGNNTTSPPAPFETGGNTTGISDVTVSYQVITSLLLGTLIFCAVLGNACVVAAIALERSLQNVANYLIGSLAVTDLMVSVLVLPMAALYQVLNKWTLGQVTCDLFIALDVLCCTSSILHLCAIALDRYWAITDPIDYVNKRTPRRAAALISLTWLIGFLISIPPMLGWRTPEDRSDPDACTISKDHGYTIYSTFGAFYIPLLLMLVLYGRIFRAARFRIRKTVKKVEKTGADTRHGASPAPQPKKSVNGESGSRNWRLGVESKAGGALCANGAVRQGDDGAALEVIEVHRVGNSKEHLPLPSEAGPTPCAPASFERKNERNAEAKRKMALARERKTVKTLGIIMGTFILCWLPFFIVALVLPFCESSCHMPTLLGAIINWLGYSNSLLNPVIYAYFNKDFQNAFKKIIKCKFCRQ

hSERT [8] = molecular target: T7, hSERT (Homo sapiens, UniProt P31645); test: Inhibition of [3H]5-HT uptake, intact HEK-hSERT cells; type: cell-based
hNET [9] = molecular target: T8, hNET (Homo sapiens, UniProt P23975); test: biochemical; type: binding
hSigma1 receptor [10] = molecular target: T5, hSigma1 receptor; test: [3H]; type: binding
hNET [11] = molecular target: T8, hNET; test: cell-based; type: cell-based
human DA D3 receptor = human DA D3 receptor (Homo sapiens, UniProt P35462); test: [3H]YM-09151-2 binding, CHOp-D3 cells; settings: test drugs up to 10 µM; words give concentration range, 'low' = low nanomolar
human DA D2 receptor = human DA D2 receptor (Homo sapiens, UniProt P14416); type: binding; settings: test drugs up to the maximal concentration tested (10 µM)
h5-HT2C receptor [12] = molecular target: T9, h5-HT2C receptor (Homo sapiens, UniProt P28335); type: cell-based; settings: data not shown
T9 sequence (P28335 33-458): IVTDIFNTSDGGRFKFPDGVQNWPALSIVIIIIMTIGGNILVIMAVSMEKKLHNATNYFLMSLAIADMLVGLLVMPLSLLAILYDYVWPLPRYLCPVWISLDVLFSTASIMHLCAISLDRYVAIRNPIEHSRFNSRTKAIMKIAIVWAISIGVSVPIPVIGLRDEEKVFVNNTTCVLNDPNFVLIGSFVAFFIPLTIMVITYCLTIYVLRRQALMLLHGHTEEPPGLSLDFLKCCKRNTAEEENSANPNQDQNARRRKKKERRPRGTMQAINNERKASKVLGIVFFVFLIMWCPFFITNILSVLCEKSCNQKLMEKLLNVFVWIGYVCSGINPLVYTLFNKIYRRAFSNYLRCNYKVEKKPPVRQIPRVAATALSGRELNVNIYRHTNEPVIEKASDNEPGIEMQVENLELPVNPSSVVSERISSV

h5-HT2A receptor [13] = molecular target: T4, h5-HT2A receptor; settings: data not shown
h5-HT1A receptor [14] = molecular target: T6, h5-HT1A receptor; test: Stimulation of [35S]GTPγS binding, HEK-h5-HT1A membranes; type: biochemical
hDAT [15] = molecular target: T1, hDAT; test: Inhibition of [3H]DA uptake, intact HEK-hDAT cells; type: cell-based; settings: for ratio of binding Ki to uptake IC50, hDAT: [125I]RTI-55 Ki / [3H]DA uptake IC50
hDAT [16] = molecular target: T1, hDAT; test: Superfusion release of preloaded [3H]DA from HEK-hDAT cells; type: cell-based
hSERT [17] = molecular target: T7, hSERT; test: Superfusion release of preloaded [3H]5-HT from HEK-hSERT cells; type: cell-based
h5-HT2C receptor [18] = molecular target: T9, h5-HT2C receptor; test: Inhibition of 5-HT-stimulated IP-1 formation; type: cell-based; settings: for h5-HT2C Inhibition of 5-HT-stimulated IP-1 formation % maximum inhibition ± sem: 100 nM 5-HT, normalized to maximal inhibition by SB242084 (1 µM)
human DA D1 receptor = human DA D1 receptor (Homo sapiens, UniProt P21728); test: [3H]SCH23390 binding, LhD1 cells; settings: test drugs up to the maximal concentration tested (10 µM)
h5-HT2C receptor [19] = molecular target: T9, h5-HT2C receptor; test: biochemical; type: binding
h5-HT2A receptor [20] = molecular target: T4, h5-HT2A receptor; test: [125I]DOI binding, HEK-h5-HT2A
hNET [21] = molecular target: T8, hNET; test: Superfusion release of preloaded [3H]NE from HEK-hNET cells; type: cell-based; settings: for % maximum release ± sem, hNET [3H]NE: relative to maximal AUC induced by METH (0.3 or 1 µM)
hSERT [22] = molecular target: T7, hSERT; test: Inhibition of [125I]RTI-55 binding, HEK-hSERT membranes
[23] = overdose with a bath salt product containing 4-FMC and MDPV; ref [44]; cited from earlier work

T4 sequence (P28223 whole entry): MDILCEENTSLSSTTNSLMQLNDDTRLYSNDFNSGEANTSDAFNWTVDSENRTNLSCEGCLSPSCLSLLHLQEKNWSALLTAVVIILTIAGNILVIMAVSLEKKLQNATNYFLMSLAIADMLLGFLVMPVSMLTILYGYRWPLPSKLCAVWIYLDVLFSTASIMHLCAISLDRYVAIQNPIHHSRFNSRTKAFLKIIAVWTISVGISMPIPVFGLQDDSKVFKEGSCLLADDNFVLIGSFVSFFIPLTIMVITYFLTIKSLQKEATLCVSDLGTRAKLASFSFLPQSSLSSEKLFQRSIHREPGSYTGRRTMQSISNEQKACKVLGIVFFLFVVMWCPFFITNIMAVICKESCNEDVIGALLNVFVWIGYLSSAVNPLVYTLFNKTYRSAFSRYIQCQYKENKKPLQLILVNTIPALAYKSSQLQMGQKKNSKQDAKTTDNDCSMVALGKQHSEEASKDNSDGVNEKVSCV
T7 sequence (P31645 whole entry): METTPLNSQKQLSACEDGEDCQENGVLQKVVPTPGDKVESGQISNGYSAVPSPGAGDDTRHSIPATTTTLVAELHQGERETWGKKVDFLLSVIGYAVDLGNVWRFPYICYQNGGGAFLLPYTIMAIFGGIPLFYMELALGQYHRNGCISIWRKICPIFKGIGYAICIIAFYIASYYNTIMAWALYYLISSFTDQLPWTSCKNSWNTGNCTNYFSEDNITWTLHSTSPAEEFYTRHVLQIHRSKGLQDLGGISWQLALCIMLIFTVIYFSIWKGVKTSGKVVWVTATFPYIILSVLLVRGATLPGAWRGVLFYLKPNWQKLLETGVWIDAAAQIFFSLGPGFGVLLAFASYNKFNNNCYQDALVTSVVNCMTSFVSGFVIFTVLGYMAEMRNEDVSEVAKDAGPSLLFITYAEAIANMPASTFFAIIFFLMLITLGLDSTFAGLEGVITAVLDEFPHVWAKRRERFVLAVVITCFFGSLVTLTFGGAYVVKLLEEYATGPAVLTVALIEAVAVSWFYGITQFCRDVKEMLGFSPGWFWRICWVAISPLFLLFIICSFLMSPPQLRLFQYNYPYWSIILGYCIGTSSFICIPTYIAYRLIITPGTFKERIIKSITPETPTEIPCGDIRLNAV
T2 sequence (Q05940 whole entry): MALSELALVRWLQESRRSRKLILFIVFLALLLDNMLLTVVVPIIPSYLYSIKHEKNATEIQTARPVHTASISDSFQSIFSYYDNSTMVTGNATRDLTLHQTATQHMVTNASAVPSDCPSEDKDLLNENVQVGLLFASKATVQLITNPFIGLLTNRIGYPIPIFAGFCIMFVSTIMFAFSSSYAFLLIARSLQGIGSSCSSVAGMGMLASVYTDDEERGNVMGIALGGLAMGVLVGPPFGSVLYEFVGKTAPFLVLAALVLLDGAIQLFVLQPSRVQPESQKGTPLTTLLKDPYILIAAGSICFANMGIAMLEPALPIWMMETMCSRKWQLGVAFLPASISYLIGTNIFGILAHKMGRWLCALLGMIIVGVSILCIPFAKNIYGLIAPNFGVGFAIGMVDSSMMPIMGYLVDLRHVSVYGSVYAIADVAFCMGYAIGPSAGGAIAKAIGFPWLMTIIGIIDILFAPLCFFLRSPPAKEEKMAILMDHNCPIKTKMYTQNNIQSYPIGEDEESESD
T1 sequence (Q01959 whole entry): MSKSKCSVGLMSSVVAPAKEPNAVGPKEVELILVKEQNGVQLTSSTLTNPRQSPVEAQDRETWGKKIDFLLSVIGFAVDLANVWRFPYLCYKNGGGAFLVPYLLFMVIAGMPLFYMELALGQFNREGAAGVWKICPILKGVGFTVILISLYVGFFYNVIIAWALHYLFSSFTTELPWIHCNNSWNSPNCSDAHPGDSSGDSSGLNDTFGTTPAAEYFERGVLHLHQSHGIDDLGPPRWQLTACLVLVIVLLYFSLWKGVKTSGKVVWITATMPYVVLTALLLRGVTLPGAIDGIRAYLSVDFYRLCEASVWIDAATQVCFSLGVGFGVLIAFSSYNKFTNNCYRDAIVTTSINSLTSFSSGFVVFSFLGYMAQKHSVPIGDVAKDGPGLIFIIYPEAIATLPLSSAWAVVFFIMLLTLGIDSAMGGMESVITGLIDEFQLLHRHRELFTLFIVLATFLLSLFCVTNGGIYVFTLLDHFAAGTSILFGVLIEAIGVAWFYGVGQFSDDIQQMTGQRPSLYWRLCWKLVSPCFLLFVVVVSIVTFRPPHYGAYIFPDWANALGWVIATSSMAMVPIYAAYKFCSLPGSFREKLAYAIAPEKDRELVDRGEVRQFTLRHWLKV
T5 sequence (Q99720 whole entry): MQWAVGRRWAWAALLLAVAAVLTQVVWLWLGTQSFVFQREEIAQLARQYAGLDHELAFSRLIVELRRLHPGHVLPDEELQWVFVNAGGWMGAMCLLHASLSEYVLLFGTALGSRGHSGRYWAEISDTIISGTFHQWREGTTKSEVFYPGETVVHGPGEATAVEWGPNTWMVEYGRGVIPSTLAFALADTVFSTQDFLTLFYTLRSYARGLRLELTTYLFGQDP
T8 sequence (P23975 whole entry): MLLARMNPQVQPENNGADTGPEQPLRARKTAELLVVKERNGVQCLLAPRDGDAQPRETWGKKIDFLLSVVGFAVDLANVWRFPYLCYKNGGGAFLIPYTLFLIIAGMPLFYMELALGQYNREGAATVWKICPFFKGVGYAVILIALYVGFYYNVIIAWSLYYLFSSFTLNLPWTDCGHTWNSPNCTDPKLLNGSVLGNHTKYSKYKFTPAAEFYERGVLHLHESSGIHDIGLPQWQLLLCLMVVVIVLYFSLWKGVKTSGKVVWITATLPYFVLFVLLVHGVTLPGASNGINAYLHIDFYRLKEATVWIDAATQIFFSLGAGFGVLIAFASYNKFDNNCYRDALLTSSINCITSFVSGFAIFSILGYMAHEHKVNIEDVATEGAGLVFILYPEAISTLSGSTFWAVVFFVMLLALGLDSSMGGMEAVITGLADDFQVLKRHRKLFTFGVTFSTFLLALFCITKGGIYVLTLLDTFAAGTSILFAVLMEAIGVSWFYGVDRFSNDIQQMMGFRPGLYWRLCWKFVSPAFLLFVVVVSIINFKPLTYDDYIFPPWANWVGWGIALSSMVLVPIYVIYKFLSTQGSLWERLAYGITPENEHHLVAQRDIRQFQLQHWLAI
Chain of human DA D3 receptor (P35462 whole entry): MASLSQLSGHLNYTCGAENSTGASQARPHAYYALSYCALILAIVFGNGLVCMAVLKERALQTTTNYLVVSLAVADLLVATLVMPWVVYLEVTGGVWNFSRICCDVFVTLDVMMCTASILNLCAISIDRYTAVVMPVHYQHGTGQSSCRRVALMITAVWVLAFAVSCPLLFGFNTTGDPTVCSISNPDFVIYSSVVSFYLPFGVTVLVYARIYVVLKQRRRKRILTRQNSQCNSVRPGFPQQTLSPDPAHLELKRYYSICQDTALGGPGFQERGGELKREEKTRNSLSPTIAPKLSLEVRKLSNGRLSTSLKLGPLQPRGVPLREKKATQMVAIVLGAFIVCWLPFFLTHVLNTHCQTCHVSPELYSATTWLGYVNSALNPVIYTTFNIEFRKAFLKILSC
Chain of human DA D1 receptor (P21728 whole entry): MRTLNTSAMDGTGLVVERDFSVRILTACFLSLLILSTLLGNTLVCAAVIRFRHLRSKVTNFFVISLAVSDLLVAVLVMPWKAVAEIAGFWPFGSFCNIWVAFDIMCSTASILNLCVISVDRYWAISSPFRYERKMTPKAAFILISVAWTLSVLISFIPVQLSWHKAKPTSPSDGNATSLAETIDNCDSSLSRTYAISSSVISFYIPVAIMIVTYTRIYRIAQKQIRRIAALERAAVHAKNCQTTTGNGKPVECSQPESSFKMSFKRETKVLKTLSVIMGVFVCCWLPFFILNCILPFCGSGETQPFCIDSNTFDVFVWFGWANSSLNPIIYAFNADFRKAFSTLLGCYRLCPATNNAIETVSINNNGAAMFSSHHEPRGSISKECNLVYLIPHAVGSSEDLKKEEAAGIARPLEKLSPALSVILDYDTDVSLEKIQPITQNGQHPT
Chain of human DA D2 receptor (P14416 whole entry): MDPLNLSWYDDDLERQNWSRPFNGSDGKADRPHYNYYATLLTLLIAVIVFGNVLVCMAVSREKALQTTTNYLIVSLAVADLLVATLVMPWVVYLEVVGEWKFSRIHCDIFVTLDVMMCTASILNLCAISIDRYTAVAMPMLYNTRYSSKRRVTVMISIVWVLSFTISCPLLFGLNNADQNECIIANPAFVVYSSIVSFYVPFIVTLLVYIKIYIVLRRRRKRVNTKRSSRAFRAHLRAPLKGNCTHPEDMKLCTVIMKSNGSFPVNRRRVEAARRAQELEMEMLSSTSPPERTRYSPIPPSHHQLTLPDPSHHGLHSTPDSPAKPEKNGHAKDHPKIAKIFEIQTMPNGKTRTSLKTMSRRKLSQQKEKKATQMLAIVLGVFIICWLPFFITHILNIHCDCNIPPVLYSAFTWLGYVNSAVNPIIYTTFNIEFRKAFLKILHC

## CN[C@@H](C)Cc1ccccc1 [METH, (+)methamphetamine, reference compound]
hDAT [1]
  Ki: 3.96 ± 0.92 µM
hVMAT2 [2]
  Ki: 920 ± 110 µM
Human D4.4 receptor
  affinity for the [3H]YM-09151-2 binding site, DA D4.4 receptor: no measurable affinity
hVMAT2 [3]
  EC50: 79 ± 29 µM
  Release of [3H]NE % maximum release ± sem or range, hVMAT2: 95.5 ± 2.1%
h5-HT2A receptor [4]
  IC50: 112 ± 12 µM
h5-HT2A receptor [4]; 100 nM 5-HT
  h5-HT2A Inhibition of 5-HT-stimulated IP-1 formation % maximum inhibition ± sem: 100.0 ± 0.0%
hSigma1 receptor [5]
  Ki: 5.2 µM
hVMAT2 [6]
  IC50: 4.72 ± 0.61 µM
h5-HT1A receptor [7]
  Ki: 5.9 ± 0.85 µM
hSERT [8]
  IC50: 4.1 ± 1.3 µM
hSERT [8]; [125I]RTI-55 Ki / [3H]5-HT uptake IC50
  ratio of binding Ki to uptake IC50, hSERT: 59
hNET [9]
  Ki: 1.39 ± 0.12 µM
hSigma1 receptor [10]; Inhibition of [3H]pentazocine binding Ki ± sem, hSigma1
  Ki: 3.18 ± 0.74 µM
hNET [11]
  IC50: 0.026 ± 0.0077 µM
  ratio of binding Ki to uptake IC50, hNET: 53
Human DA D3 receptor
  affinity for the [3H]YM-09151-2 binding site, DA D3 receptor: no measurable affinity
Human DA D2 receptor
  affinity for the [3H]YM-09151-2 binding site, DA D2 receptor: no measurable affinity
h5-HT2C receptor [12]
  h5-HT2C agonist activity, inositol monophosphate: partial agonists with midmicromolar potencies
h5-HT2A receptor [13]
  h5-HT2A agonist activity, inositol monophosphate: partial agonist activity at millimolar concentrations
h5-HT1A receptor [14]
  EC50: 18.1 ± 4.2 µM
h5-HT1A receptor [14]; read-out: h5-HT1A Stimulation of [35S]GTPγS binding % maximum stimulation ± sem
  Emax: 66%
hDAT [15]
  IC50: 0.026 ± 0.01 µM
  ratio of binding Ki to uptake IC50, hDAT: 152
hDAT [16]
  EC50: 0.4 ± 0.12 µM
hDAT [16]; relative to maximal AUC induced by METH (1 or 10 µM)
  % maximum release ± sem, hDAT [3H]DA: 101.9 ± 4.9%
hSERT [17]
  % maximum release ± sem, hSERT [3H]5-HT: 97.6 ± 7.2%
  EC50: 22.4 ± 0.24 µM
hSERT [17]; EC50 compared to PCA
  fold less potent than PCA to induce [3H]5-HT release: 28 fold
h5-HT2C receptor [18]
  IC50: > 1000 µM
  h5-HT2C Inhibition of 5-HT-stimulated IP-1 formation % maximum inhibition ± sem: < 3%
Human DA D1 receptor
  affinity for the [3H]SCH23390 binding site, DA D1 receptor: no measurable affinity
h5-HT2C receptor [19]
  Ki: 10.2 ± 2.9 µM
h5-HT2A receptor [20]
  Ki: 43.5 ± 9.1 µM
hNET [21]
  EC50: 0.128 ± 0.036 µM
  % maximum release ± sem, hNET [3H]NE: 92.7 ± 5.2%
hSERT [22]
  Ki: 241 ± 8.9 µM

## CNC(C)C(=O)c1ccc(F)cc1 (stereo not shown) [4-FMC, 4-fluoromethcathinone]
hDAT [1]; read-out: Inhibition of [125I]RTI-55 binding Ki ± sem, hDAT, HEK-hDAT membranes
  Ki: 10.4 ± 3.3 µM
hVMAT2 [3]; read-out: Drug-induced release of [3H]NE EC50 ± sem, hVMAT2, superfusion
  EC50: > 100 µM
h5-HT2A receptor [4]; 100 nM 5-HT
  h5-HT2A Inhibition of 5-HT-stimulated IP-1 formation % maximum inhibition ± sem: 97.0 ± 1.6%
h5-HT2A receptor [4]; read-out: h5-HT2A Inhibition of 5-HT-stimulated IP-1 formation IC50 ± sem, 100 nM 5-HT
  IC50: 23.6 ± 3 µM
hVMAT2 [6]; read-out: Inhibition of [3H]5-HT uptake IC50 ± sem, hVMAT2, 40 nM [3H]5-HT, 2 mM MgATP
  IC50: 178 ± 36 µM
h5-HT1A receptor [7]; read-out: Inhibition of radioligand binding Ki ± sem, h5-HT1A [3H]8OH-DPAT
  Ki: 71.6 ± 3.4 µM
[23]
  serum concentration in overdose: 346 ng/mL
  serum concentration in overdose (molar): ~ 1.6 uM
hSERT [8]; read-out: Inhibition of [3H]neurotransmitter uptake IC50 ± sem, hSERT [3H]5-HT, 20 nM [3H]5-HT, intact cells
  IC50: > 10 µM
hNET [9]; read-out: Inhibition of [125I]RTI-55 binding Ki ± sem, hNET, HEK-hNET membranes
  Ki: 35 ± 10 µM
hSigma1 receptor [10]; read-out: Inhibition of [3H]pentazocine binding Ki ± sem, hSigma1
  Ki: 24.2 ± 9 µM
hNET [11]; [125I]RTI-55 Ki / [3H]NE uptake IC50
  ratio of binding Ki to uptake IC50, hNET: 276
hNET [11]; read-out: Inhibition of [3H]neurotransmitter uptake IC50 ± sem, hNET [3H]NE, 20 nM [3H]NE, intact cells
  IC50: 0.127 ± 0.02 µM
h5-HT1A receptor [14]; normalized to the maximal stimulation by 5-HT
  h5-HT1A Stimulation of [35S]GTPγS binding % maximum stimulation ± sem: 70.7 ± 8.3%
h5-HT1A receptor [14]; read-out: h5-HT1A Stimulation of [35S]GTPγS binding EC50 ± sem
  EC50: 156 ± 3.4 µM
hDAT [15]
  ratio of binding Ki to uptake IC50, hDAT: 38
hDAT [15]; read-out: Inhibition of [3H]neurotransmitter uptake IC50 ± sem, hDAT [3H]DA, 20 nM [3H]DA, intact cells
  IC50: 0.273 ± 0.074 µM
hDAT [16]
  % maximum release ± sem, hDAT [3H]DA: 98 ± 14%
hDAT [16]; 4-FMC 10 µM to 300 µM, mephedrone 30 µM, methylone 100 µM
  time of peak/maximal [3H]DA release after addition of drug: about 6 min
hDAT [16]; EC50 compared to METH
  fold less potent than METH to induce [3H]DA release: 45 fold
hDAT [16]; read-out: Drug-induced release of [3H]neurotransmitter EC50 ± sem, hDAT [3H]DA, superfusion, AUC
  EC50: 17.8 ± 7.6 µM
hSERT [17]
  % maximum release ± sem, hSERT [3H]5-HT: 39.3 ± 9.7%
  time of peak [3H]5-HT release after addition of drug: about 6 min
hSERT [17]; read-out: Drug-induced release of [3H]neurotransmitter EC50 ± sem, hSERT [3H]5-HT, superfusion, AUC
  EC50: 39 ± 14 µM
h5-HT2C receptor [18]
  h5-HT2C Inhibition of 5-HT-stimulated IP-1 formation % maximum inhibition ± sem: 15 ± 20%
h5-HT2C receptor [19]; read-out: Inhibition of radioligand binding Ki ± sem, h5-HT2C [125I]DOI
  Ki: 12.6 ± 2.4 µM
h5-HT2A receptor [20]; read-out: Inhibition of radioligand binding Ki ± sem, h5-HT2A [125I]DOI
  Ki: 10 ± 1 µM
hNET [21]
  time of peak [3H]NE release after addition of drug: 8 to 16 min
  % maximum release ± sem, hNET [3H]NE: 194 ± 58%
hNET [21]; read-out: Drug-induced release of [3H]neurotransmitter EC50 ± sem, hNET [3H]NE, superfusion, AUC
  EC50: 1.53 ± 0.43 µM
